Measured values taken from ChEMBL document CHEMBL1201862, “PubChem BioAssay data set” (2004).
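Grown in 96-well plates, cells were treated for 48 hours with each compound at five concentrations. Insufficient inhibition: endpoint recorded as highest concentration tested. GI50 = concentration required for 50% inhibition of growth.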 Calls of active or inactive are those of the source. No stated cut-off is given here; in the data, active = GI50 up to about 1.1 µM and inactive = higher.

Key:
Test in all cases: DTP human tumour cell line panel, 48 h
[1] = system: SW-620
[2] = system: NCI-H522
[3] = system: HCC 2998
[4] = system: SF-268
[5] = system: M14
[6] = system: SK-MEL-28
[7] = system: NCI-H226
[8] = system: LOX IMVI
[9] = system: DLD-1
[10] = system: CCRF-CEM
[11] = system: LXFL 529
[12] = system: Malme-3M
[13] = system: UO-31
[14] = system: COLO 205
[15] = system: RXF 393
[16] = system: EKVX
[17] = system: OVCAR-8
[18] = system: A498
[19] = system: NCI/ADR-RES
[20] = system: T47D

SMILES	GI50 [1]	GI50 [2]	GI50 [3]	GI50 [4]	GI50 [5]	GI50 [6]	GI50 [7]	GI50 [8]	GI50 [9]	GI50 [10]	GI50 [11]	GI50 [12]	GI50 [13]	GI50 [14]	GI50 [15]	GI50 [16]	GI50 [17]	GI50 [18]	GI50 [19]	GI50 [20]
CCOC(=O)c1cc(-c2ccc(-c3cc(C(=O)OCC)c(C#N)c(N)c3C#N)cc2)c(C#N)c(N)c1C#N	> 100 µM (inactive)	> 100 µM (inactive)	> 100 µM (inactive)	> 100 µM (inactive)	> 100 µM (inactive)	> 100 µM (inactive)	> 100 µM (inactive)	> 100 µM (inactive)	> 100 µM (inactive)	> 100 µM (inactive)	> 100 µM (inactive)	> 100 µM (inactive)	> 100 µM (inactive)	> 100 µM (inactive)	> 100 µM (inactive)	> 100 µM (inactive)	> 100 µM (inactive)	–	–	–
OCc1c(-c2cccc3ccccc23)sc(-c2cccc3ccccc23)c1CO	15.6 µM (inactive)	10.5 µM (inactive)	18.1 µM (inactive)	13.2 µM (inactive)	14.5 µM (inactive)	10.4 µM (inactive)	16.7 µM (inactive)	14.6 µM (inactive)	–	6.41 µM (inactive)	14 µM (inactive)	12.2 µM (inactive)	11.1 µM (inactive)	11.6 µM (inactive)	–	11.3 µM (inactive)	13 µM (inactive)	–	–	–
NC(=S)N/N=C/C(O[C@@H](/C=N/NC(N)=S)CO)n1cnc2c(N)ncnc21 (some centres undefined)	> 38 µM (inactive)	> 47.9 µM (inactive)	> 100 µM (inactive)	> 85.5 µM (inactive)	> 100 µM (inactive)	> 100 µM (inactive)	> 100 µM (inactive)	> 100 µM (inactive)	–	37.2 µM (inactive)	> 78.2 µM (inactive)	> 100 µM (inactive)	> 100 µM (inactive)	> 49.8 µM (inactive)	> 100 µM (inactive)	> 100 µM (inactive)	> 91.2 µM (inactive)	> 100 µM (inactive)	–	–
CC(C)(Oc1ccc2c(=O)cc(-c3ccc(Cl)cc3)oc2c1)C(=O)Nc1c(Cl)cccc1Cl	> 100 µM (inactive)	> 100 µM (inactive)	–	> 100 µM (inactive)	> 100 µM (inactive)	> 100 µM (inactive)	–	> 100 µM (inactive)	> 100 µM (inactive)	> 100 µM (inactive)	> 100 µM (inactive)	> 100 µM (inactive)	25 µM (inactive)	–	–	> 100 µM (inactive)	> 100 µM (inactive)	> 100 µM (inactive)	–	–
CCC12CCCN(Cc3ccccc3)C1c1c(n(C)c3ccccc13)CC2 (centres undefined)	178 µM (inactive)	61.1 µM (inactive)	151 µM (inactive)	199 µM (inactive)	–	> 253 µM (inactive)	> 253 µM (inactive)	236 µM (inactive)	> 253 µM (inactive)	168 µM (inactive)	167 µM (inactive)	> 253 µM (inactive)	–	164 µM (inactive)	97.3 µM (inactive)	> 253 µM (inactive)	> 253 µM (inactive)	–	–	–
O=C1NC(NNc2ccccc2)=N/C1=C\c1ccccc1O	58.1 µM (inactive)	80.4 µM (inactive)	80.9 µM (inactive)	> 100 µM (inactive)	97.1 µM (inactive)	> 100 µM (inactive)	86.1 µM (inactive)	> 100 µM (inactive)	–	0.0183 µM (active)	–	> 100 µM (inactive)	> 100 µM (inactive)	> 100 µM (inactive)	40 µM (inactive)	66.8 µM (inactive)	> 100 µM (inactive)	45.9 µM (inactive)	29.6 µM (inactive)	34.1 µM (inactive)
C/C(CC(=O)Nc1ccccc1[N+](=O)[O-])=N\NC(N)=O	> 100 µM (inactive)	> 100 µM (inactive)	> 100 µM (inactive)	> 100 µM (inactive)	> 100 µM (inactive)	> 100 µM (inactive)	> 100 µM (inactive)	> 100 µM (inactive)	> 100 µM (inactive)	> 100 µM (inactive)	> 100 µM (inactive)	> 100 µM (inactive)	> 100 µM (inactive)	> 100 µM (inactive)	> 100 µM (inactive)	> 100 µM (inactive)	> 100 µM (inactive)	–	–	–
CC(C)OC(=O)C1=C(O)c2ccccc2S(=O)(=O)N1	> 100 µM (inactive)	> 100 µM (inactive)	> 100 µM (inactive)	> 100 µM (inactive)	> 100 µM (inactive)	> 100 µM (inactive)	> 100 µM (inactive)	> 100 µM (inactive)	> 100 µM (inactive)	> 100 µM (inactive)	> 100 µM (inactive)	> 100 µM (inactive)	–	> 100 µM (inactive)	–	> 100 µM (inactive)	> 100 µM (inactive)	> 100 µM (inactive)	–	–
